The values that follow come from patent US20030166601A1, “Novel colloid synthetic vectors for gene therapy” (priority 1999, published 2003).

Data set [1] has as its system cultured cells. In words: Transfection of cultured cells, luciferase activity. The data set is classed as cell-based. The source says:
The gene delivery ability of substituted aminoethanols with long chain hydrocarbon (aliphatic) substitutients was studied by transfection of cultured cells and then in vivo by intravenous injection (Table 2 and 3). The substituted aminoethanols have two hydrophilic polar heads connected with one hydrophobic body, which was named bihead lipids. Bihead lipids are proposed to form a monolayer membrane.

Data set [2] deals with CD-1 mice. The data set can be described thus: Luciferase expression in organs after intravenous injection of pCILuc complexes. It counts as in vivo. The following applies: for Luciferase RLU/20 ul lysate heart / Luciferase RLU/20 ul lysate kidney / Luciferase RLU/20 ul lysate liver / Luciferase RLU/20 ul lysate lung / Luciferase RLU/20 ul lysate spleen: 40 μg pCILuc i.v., 5 h. The method in brief:
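Female CD-1 mice weighing 13-15 g received tail vein injections of 40 μg of the luciferase reporter plasmid pCILuc complexed with cationic lipids, used alone or mixed with cholesterol at a 1:1 mole ratio, at defined lipid-to-DNA weight ratios. Mice were sacrificed 5 h later. Organs were homogenized in 0.5 ml lysis buffer, and luciferase activity was measured in 20 μl of supernatant. Values are mean RLU from four mice, with DOTAP:Chol as the standard control.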

A short description of data set [3]: Particle size of substituted aminoethanol-DNA complexes. The data set is classed as physicochemical. The source says: The component streams intersect in the mixer, whereby shearing and mixing of the DNA and polymer are induced, whereby particles of a complex of DNA and polymer are formed. The resulting preparations may be tested for mean particle size in nanometers and distribution through dynamic light scattering using, for example, a Coulter N4 Plus Submicron Particle Sizer (Coulter Corporation, Miami, Fla.). Mean particle sizes and standard deviaitons can be determined by the unimodal and Size Distribution Processing (SDP), or “intensity” methods.
In the above methods, a laser is directed through a preparation of the particles. Dynamic light scattering is measured as a result of the Brownian motion of the particles. The dynamic light scattering-which is measured then is correlated-to particle size. In the unimodal method, the size distribution is determined by placing the sizes of the particles on a Gaussian curve. In the SDP method, size distribution is determined by a FORTRAN program called CONTIN. Such methods also are described further in the Coulter N4 Plus Submicron Particle Sizer Reference Manual (November 1995).
(§1) Substituted aminoethanols lacking long chain hydrocarbon (aliphatic) substitutients were used to compact plasmid DNA into a colloidal dispersion in water. The size and zeta potential of the colloidal dispersions prepared were determined at different charge ratios for added cation (amine) to anion (DNA phosphate) and are shown in Table 1 and FIG. 4. The colloidal dispersions prepared permit compaction of the DNA into core complexes that are suitable for the invention.

Data set [4] in a line: Zeta potential of substituted aminoethanol-DNA complexes. The data set is classed as physicochemical. The following applies: in mV (unit assumed). As to the method: as §1
In data set [5] the test system is CHO (Sst2) cells. The data set can be described thus: Transfection of CHO (Sst2) cells with peptide ligand complexes, luciferase. It counts as cell-based. The following applies: polylysine core complexes; FIG. 26. The source says:
K14RGD peptide containing the amino acid sequence: KKK KKK KKK KKK KKS CRG DC (SEQ ID NO:5) with at least 90% purity was synthesized at Alpha Diagnostic International (San Antonio, Tex.). Peptide K14SMT contains the amino acid sequence: KKK KKK KKK KKK KKA d-FCY d-WKT CT (SEQ ID NO:6), and peptide K14MST contains the amino acid sequence KKK KKK KKK KKK KKA TDC RGE CF (SEQ ID NO:7). Both SMT and MST peptides were synthesized at Genemed Synthesis Inc (CA, South San Francisco) and oxidized to make circularized peptide. The peptide was purified to 90% purity by the provider. CHO (Sst+) cell line was obtained from Novartis Oncology (Dr. Friedrich Raulf). The cell line was selected to stable express human somatostatin receptor Sst2.
10000 CHO (Sst2) cells were cultured in a serum-containing medium with 0.4 mg/ml G418 for 12 hr before transfection in each well of a 96 well plate. The medium was changed to a serum free medium before transfection. Peptide was added to the cell at indicated amounts from 1 ug to 10 ug/well and incubated for 30 min before 0.5 ug pCIluc2 was added to the same medium to transfect the cells. Lipofectin at 4 ul was used as the control.
At 24 hr, luciferase activity was measured with Promega luciferase assay kit according to the recommended procedure.

With `CCCCCCCCCCCCC(O)CN(CCCN)CCCCCCCCCCCCCN(CCCN)CC(O)CCCCCCCCCCCC` (stereo not drawn) [CGP47204A], the “Luciferase activity Ave. RLU × 10000/well FBS(+)” value in data set [1] (charge ratio (+/−) 0.5) was 11 RLU × 10000/well; in data set [1] (charge ratio (+/−) 1) it was 821 RLU × 10000/well; in data set [1] (charge ratio (+/−) 2) it was 8,079 RLU × 10000/well; in data set [1] (charge ratio (+/−) 4), 13,088 RLU × 10000/well; in data set [1] (charge ratio (+/−) 6), 22,694 RLU × 10000/well; in data set [1] (charge ratio (+/−) 8) it was 21,644 RLU × 10000/well. Besides, the “Luciferase activity Ave. RLU × 10000/well FBS(−)” value in data set [1] (charge ratio (+/−) 0.5) was 33 RLU × 10000/well; in data set [1] (charge ratio (+/−) 1), 737 RLU × 10000/well; in data set [1] (charge ratio (+/−) 2) it was 8,386 RLU × 10000/well; in data set [1] (charge ratio (+/−) 4) it was 15,009 RLU × 10000/well; in data set [1] (charge ratio (+/−) 6), 20,091 RLU × 10000/well; in data set [1] (charge ratio (+/−) 8) it was 17,740 RLU × 10000/well. Also, the “Luciferase RLU/20 ul lysate heart” value in data set [2] (CR 0.5) is on record as 38 RLU/20 ul lysate; in data set [2] (CR 1), 41 RLU/20 ul lysate; in data set [2] (CR 4), 129 RLU/20 ul lysate; in data set [2] (CR 10), 983 RLU/20 ul lysate; in data set [2] (CR 20), 96 RLU/20 ul lysate. Further, the “Luciferase RLU/20 ul lysate kidney” value in data set [2] (CR 0.5) was 39 RLU/20 ul lysate; in data set [2] (CR 1) it was 38 RLU/20 ul lysate; in data set [2] (CR 4), 386 RLU/20 ul lysate; in data set [2] (CR 10), 156 RLU/20 ul lysate; in data set [2] (CR 20), 113 RLU/20 ul lysate. The “Luciferase RLU/20 ul lysate liver” value was 45 RLU/20 ul lysate in data set [2] (CR 0.5); 53 RLU/20 ul lysate in data set [2] (CR 1); 4,583 RLU/20 ul lysate in data set [2] (CR 4); 3,270 RLU/20 ul lysate in data set [2] (CR 10); 429 RLU/20 ul lysate in data set [2] (CR 20). Further, the “Luciferase RLU/20 ul lysate lung” value in data set [2] (CR 0.5) is recorded as 44 RLU/20 ul lysate; in data set [2] (CR 1) it was 51 RLU/20 ul lysate; in data set [2] (CR 4), 5,009 RLU/20 ul lysate; in data set [2] (CR 10) it was 38,115 RLU/20 ul lysate; in data set [2] (CR 20), 3,258 RLU/20 ul lysate. The “Luciferase RLU/20 ul lysate spleen” value is 80 RLU/20 ul lysate in data set [2] (CR 0.5); 467 RLU/20 ul lysate in data set [2] (CR 1); 5,594 RLU/20 ul lysate in data set [2] (CR 4); 6,378 RLU/20 ul lysate in data set [2] (CR 10); 779 RLU/20 ul lysate in data set [2] (CR 20). Further, the “expression in vivo by core complexes” value in data set [2] (mouse, in vivo) is “exhibit expression in vivo”.
Consider `CCNCCCNCCCCNCCCNCC` [CGP 41660A], for which the “Particle Size” value is 136 nm in data set [3] (charge ratio (+/−) 0.5); 62.6 nm in data set [3] (charge ratio (+/−) 1.0); 93.4 nm in data set [3] (charge ratio (+/−) 1.5); 573.5 nm in data set [3] (charge ratio (+/−) 2.0); 987.4 nm in data set [3] (charge ratio (+/−) 3.0); 4959 nm in data set [3] (charge ratio (+/−) 4.0). The “Zeta Potential” value in data set [4] (charge ratio (+/−) 0.5) is given as −40.9; in data set [4] (charge ratio (+/−) 1.0), −8.72; in data set [4] (charge ratio (+/−) 1.5), −7.67; in data set [4] (charge ratio (+/−) 2.0), −7.08; in data set [4] (charge ratio (+/−) 3.0), −5.03; in data set [4] (charge ratio (+/−) 4.0), −4.87.
In the case of `C(CNCCC1CCCCN1)CNCCC1CCCCN1` (stereo not drawn) [CGP 61670A], the “Particle Size” value is given as 77.6 nm in data set [3] (charge ratio (+/−) 1.0); 192.4 nm in data set [3] (charge ratio (+/−) 1.5); 293.3 nm in data set [3] (charge ratio (+/−) 2.0); 3946.4 nm in data set [3] (charge ratio (+/−) 3.0); 4304.7 nm in data set [3] (charge ratio (+/−) 4.0). In addition, the “Zeta Potential” value in data set [4] (charge ratio (+/−) 0.5) is reported as −17.6; in data set [4] (charge ratio (+/−) 1.0), −15.4; in data set [4] (charge ratio (+/−) 1.5), −9.1; in data set [4] (charge ratio (+/−) 2.0), −8.71; in data set [4] (charge ratio (+/−) 3.0), −6.01; in data set [4] (charge ratio (+/−) 4.0), −5.52.
Turning to `CCN(CCCNCCCNCN(CC)C(=O)CN)C(=O)CN` [CGP 61750A], the “Particle Size” value in data set [3] (charge ratio (+/−) 0.5) is given as 176.7 nm; in data set [3] (charge ratio (+/−) 1.0), 77.6 nm; in data set [3] (charge ratio (+/−) 1.5), 90.3 nm; in data set [3] (charge ratio (+/−) 2.0) it was 206.8 nm; in data set [3] (charge ratio (+/−) 3.0), 1941.8 nm; in data set [3] (charge ratio (+/−) 4.0), 2526.8 nm. Further, the “Zeta Potential” value is −47.3 in data set [4] (charge ratio (+/−) 0.5); −30 in data set [4] (charge ratio (+/−) 1.0); −25 in data set [4] (charge ratio (+/−) 1.5); −17.1 in data set [4] (charge ratio (+/−) 2.0); −11.7 in data set [4] (charge ratio (+/−) 3.0); −9.78 in data set [4] (charge ratio (+/−) 4.0).
Consider KKK KKK KKK KKK KKA TDC RGE CF [MST], for which the “expression, effect of peptide ligand” value in data set [5] is listed as “not observed”.
The same measure, in the same setting: next, “KKK KKK KKK KKK KKA d-FCY d-WKT CT [SMT]”: “increased expression”.
